Experimental findings from patent publication US10959432B2, “Microbiocidal oxadiazole derivatives” (Syngenta Participations AG, priority 2016, dated 2021) are described below.

The test system of experiment [1] is Puccinia recondita f. sp. tritici. As to the kind of experiment: Fungicidal activity against Puccinia recondita f. sp. tritici / wheat / leaf disc curative (brown rust). Format: in vivo. The conditions noted are these: foliar, 200 ppm in the applied formulation, wheat leaf segments cv. Kanzler, curative (applied 1 day after inoculation), assessed 6 to 8 days after application, read-out: disease control compared to untreated control leaf disks. The essentials:
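Curative test: compound, diluted from DMSO stock into water, applied one day after spore inoculation of wheat (cv. Kanzler) leaf segments kept on agar in darkness at 19° C. and 75% RH. Climate-cabinet incubation (19° C., 75% RH, 12 h photoperiod); disease control relative to untreated read 6–8 days post-application.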

A further experiment concerns Uromyces viciae-fabae. As to the kind of experiment: Fungicidal activity against Uromyces viciae-fabae / field bean / leaf disc preventative (faba-bean rust). Format: in vivo. The conditions noted are these: foliar, 288 h, 100 ppm in the applied formulation, field bean leaf discs, preventative (inoculated two hours after application), assessed 12 days after application, read-out: disease control compared to untreated control leaf discs. The procedure:
Leaf disks or leaf segments of various plant species are cut from plants grown in a greenhouse. The cut leaf disks or segments are placed in multiwell plates (24-well format) onto water agar. The leaf disks are sprayed with a test solution before (preventative) or after (curative) inoculation. Compounds to be tested are prepared as DMSO solutions (max. 10 mg/ml) which are diluted to the appropriate concentration with 0.025% Tween20 just before spraying. The inoculated leaf disks or segments are incubated under defined conditions (temperature, relative humidity, light, etc.) according to the respective test system. A single evaluation of disease level is carried out 3 to 14 days after inoculation, depending on the pathosystem. Percent disease control relative to the untreated check leaf disks or segments is then calculated. General Examples of Liquid Culture Tests in Well Plates:
Example 5: Fungicidal Activity Against Uromyces viciae-fabae/Field Bean/Leaf Disc Preventative (Faba-Bean Rust)
Field bean leaf discs are placed on water agar in multiwell plates (96-well format) and 10 μl of the formulated test compound diluted in acetone and a spreader pipetted onto the leaf disc. Two hours after application leaf discs are inoculated by spraying a spore suspension on the lower leaf surface. The leaf discs are incubated in a climate cabinet at 22° C. with 18 hour day and 70% relative humidity. The activity of a compound is assessed as percent disease control compared to untreated when an appropriate level of disease damage appears in untreated check leaf disks (12 days after application).
The following compounds at 100 ppm in the applied formulation give at least 80% disease control in this test when compared to untreated control leaf discs under the same conditions, which show extensive disease development.

For experiment [2], the system named is Puccinia recondita f. sp. tritici. As to the kind of experiment: Fungicidal activity against Puccinia recondita f. sp. tritici / wheat / leaf disc preventative (brown rust). It is filed as in vivo. The conditions noted are these: foliar, 200 ppm in the applied formulation, wheat leaf segments cv. Kanzler, preventative (inoculated 1 day after application), assessed 7 to 9 days after application, read-out: disease control compared to untreated control leaf disks. The essentials:
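Preventative leaf-segment test: compound sprayed at 200 ppm onto wheat (cv. Kanzler) segments, brown rust spores applied 1 day after. Kept at 19C and 75% rh under 12 h light/dark cycles; disease control versus untreated check read 7 to 9 days post-application.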

The next experiment relates to Phakopsora pachyrhizi. As to the kind of experiment: Fungicidal activity against Phakopsora pachyrhizi / soybean / leaf disc preventative (Asian soybean rust). Format: in vivo. The conditions noted are these: foliar, 200 ppm in the applied formulation, soybean leaf disks, preventative (inoculated one day after application), assessed 12 to 14 days after application, read-out: disease control compared to untreated control leaf disks. The essentials: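 Preventative test: compound applied to soybean leaf discs a day before spore inoculation of the lower surface. Discs kept at 20° C and 75% rh, first 24-36 h in darkness, then under 12 h light/day; disease control relative to untreated discs rated 12 to 14 days post-application.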

Experiment [3] relates to Glomerella laqenarium (Colletotrichum lagenarium). Put plainly: Fungicidal activity against Glomerella lagenarium (Colletotrichum lagenarium) liquid culture / cucumber / preventative (anthracnose). It is filed as cell-based. The conditions noted are these: Colletotrichum orbiculare; 20 ppm in the applied formulation; liquid culture in PDB, 24° C., 3 to 4 days after application; read-out: disease control compared to untreated control (inhibition of growth measured photometrically). The procedure, abridged: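 Test compound, applied from DMSO solution, is combined with PDB containing conidia taken from cryogenic storage. After 3–4 days at 24 °C, growth is measured photometrically and antifungal activity expressed as percent relative to untreated control.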

SMILES strings stand for the structures. A value given as a limit tells only on which side of the number the result lay.

In the case of `CN(C(=O)c1ccc(-c2noc(C(F)(F)F)n2)cc1)C1CCOC1` (centres unmarked) [Compound 1a.7, N-methyl-N-tetrahydrofuran-3-yl-4-[5-(trifluoromethyl)-1,2,4-oxadiazol-3-yl]benzamide], the pest or weed control at 200 ppm in experiment [1] and in experiment [2] was ≥ 80% throughout. In addition, the pest or weed control at 100 ppm in the experiment with Uromyces viciae-fabae is ≥ 80%.
As for `COC(=O)C1(NC(=O)c2ccc(-c3noc(C(F)(F)F)n3)cc2)CCCN(OC)C1` (centres unmarked) [Compound 1a.8, methyl 1-methoxy-3-[[4-[5-(trifluoromethyl)-1,2,4-oxadiazol-3-yl]benzoyl]amino]piperidine-3-carboxylate], the pest or weed control at 200 ppm in experiment [1] is ≥ 80%. The pest or weed control at 100 ppm in the experiment with Uromyces viciae-fabae is ≥ 80%.
Regarding `CN(C(=O)c1ccc(-c2noc(C(F)(F)F)n2)cc1)C1CCSC1` (centres unmarked) [Compound 1a.9, N-methyl-N-tetra-hydrothiophen-3-yl-4-[5-(trifluoromethyl)-1,2,4-oxadiazol-3-yl]benzamide], in experiment [1], the pest or weed control at 200 ppm was ≥ 80%. Further, the pest or weed control at 100 ppm in the experiment on Uromyces viciae-fabae was ≥ 80%.
For `O=C(NC1CCN(Cc2ccccc2)CC1)c1ccc(-c2noc(C(F)(F)F)n2)cc1F` [Compound 1b.3, N-(1-benzyl-4-piperidyl)-2-fluoro-4-[5-(trifuoromethyl)-1,2,4-oxadiazol-3-yl]benzamide], the pest or weed control at 100 ppm in the experiment on Uromyces viciae-fabae is ≥ 80%. Moreover, the pest or weed control at 200 ppm (in experiment [2]; in the experiment with Phakopsora pachyrhizi) was ≥ 80% throughout.
Regarding `CN(C(=O)c1ccc(-c2noc(C(F)(F)F)n2)cc1F)C1CCOC1` (centres unmarked) [Compound 1b.7, 2-fluoro-N-methyl-N-tetrahydrofuran-3-yl-4-[5-(trifluoromethyl)-1,2,4-oxadiazol-3-yl]benzamide], in experiment [1], the pest or weed control at 200 ppm is ≥ 80%. Also, the pest or weed control at 100 ppm with Uromyces viciae-fabae was ≥ 80%.
Regarding `CN(CC1CCCCO1)C(=O)c1ccc(-c2noc(C(F)(F)F)n2)cc1F` (centres unmarked) [Compound 1b.10, 2-fluoro-N-methyl-N-(tetrahydropyran-2-ylmethyl)-4-[5-(trifluoromethyl)-1,2,4-oxadiazol-3-yl]benzamide], in experiment [1], the pest or weed control at 200 ppm is ≥ 80%. Also, the pest or weed control at 100 ppm with Uromyces viciae-fabae is ≥ 80%.
For `CC(NC(=O)c1ccc(-c2noc(C(F)(F)F)n2)cc1F)C1(C)OCCO1` (centres unmarked) [Compound 1b.12, 2-fluoro-N-[1-(2-methyl-1,3-dioxolan-2-yl)ethyl]-4-[5-(trifluoromethyl)-1,2,4-oxadiazol-3-yl]benzamide], in experiment [1], the pest or weed control at 200 ppm is ≥ 80%. Also, in the experiment with Uromyces viciae-fabae, the pest or weed control at 100 ppm was ≥ 80%.
On to `O=C(NCC1CCOC1)c1ccc(-c2noc(C(F)(F)F)n2)cc1Cl` (centres unmarked) [Compound 1b.14, 2-chloro-N-(tetrahydrofuran-3-ylmethyl)-4-[5-(trifluoromethyl)-1,2,4-oxadiazol-3-yl]benzamide], for which the inhibition at 20 ppm in experiment [3] was ≥ 80%. The pest or weed control at 100 ppm in the experiment on Uromyces viciae-fabae is ≥ 80%. Moreover, the pest or weed control at 200 ppm (in experiment [2]; in the experiment with Phakopsora pachyrhizi) was ≥ 80% each time.
Regarding `CC1CCC(NC(=O)c2ccc(-c3noc(C(F)(F)F)n3)cc2)CC1` (centres unmarked) [Compound 2a.6, N-(4-methylcyclohexyl)-4-[5-(trifluoromethyl)-1,2,4-oxadiazol-3-yl]benzamide], the pest or weed control at 100 ppm with Uromyces viciae-fabae was ≥ 80%. Besides, the pest or weed control at 200 ppm (in experiment [2]; in the experiment on Phakopsora pachyrhizi) was ≥ 80% throughout.
Consider `O=C(NC1(Cc2ccc(Cl)cc2)CC1)c1ccc(-c2noc(C(F)(F)F)n2)cc1` [Compound 2a.7, N-[1-[(4-chlorophenyl)methyl]cyclopropyl]-4-[5-(trifluoromethyl)-1,2,4-oxadiazol-3-yl]benzamide], for which the pest or weed control at 100 ppm in the experiment with Uromyces viciae-fabae is ≥ 80%. For the same compound, the pest or weed control at 200 ppm (in experiment [2]; in the experiment on Phakopsora pachyrhizi) was ≥ 80% throughout.
Regarding `C#CC1(NC(=O)c2ccc(-c3noc(C(F)(F)F)n3)cc2F)CCCCC1` [Compound 2b.2, N-(1-ethynylcyclohexyl)-2-fluoro-4-[5-(trifluoromethyl)-1,2,4-oxadiazol-3-yl]benzamide], the inhibition at 20 ppm in experiment [3] is ≥ 80%. Further, the pest or weed control at 100 ppm in the experiment with Uromyces viciae-fabae was ≥ 80%. Besides, the pest or weed control at 200 ppm in the experiment with Phakopsora pachyrhizi was ≥ 80%.
`O=C(NC1(C2CC2)CC1)c1ccc(-c2noc(C(F)(F)F)n2)cc1F` [Compound 2b.6, N-(1-cyclopropylcyclo-propyl)-2-fluoro-4-[5-(trifluoromethyl)-1,2,4-oxadiazol-3-yl]benzamide]: the inhibition at 20 ppm in experiment [3] is ≥ 80%. Further, the pest or weed control at 100 ppm in the experiment with Uromyces viciae-fabae was ≥ 80%. Moreover, the pest or weed control at 200 ppm in the experiment with Phakopsora pachyrhizi is ≥ 80%.
Take `CC(NC(=O)c1ccc(-c2noc(C(F)(F)F)n2)cc1Cl)C1CC1` (centres unmarked) [Compound 2b.15, 2-chloro-N-(1-cyclopropylethyl)-4-[5-(trifluoromethyl)-1,2,4-oxadiazol-3-yl]benzamide]: the pest or weed control at 100 ppm in the experiment on Uromyces viciae-fabae is ≥ 80%. The pest or weed control at 200 ppm (in experiment [2]; with Phakopsora pachyrhizi) was ≥ 80% each time.
For the compound `COC(=O)CNC(=O)c1ccc(-c2noc(C(F)(F)F)n2)cc1` [Compound 3a.4, methyl 2-[[4-[5-(trifluoromethyl)-1,2,4-oxadiazol-3-yl]benzoyl]amino]acetate], the inhibition at 20 ppm in experiment [3] was ≥ 80%. The pest or weed control at 100 ppm in the experiment on Uromyces viciae-fabae is ≥ 80%. The pest or weed control at 200 ppm (in experiment [2]; in the experiment on Phakopsora pachyrhizi) was ≥ 80% throughout.
In the case of `O=C(NCCCCc1ccccc1)c1ccc(-c2noc(C(F)(F)F)n2)cc1F` [Compound 4b.10, 2-fluoro-N-(4-phenylbutyl)-4-[5-(trifluoromethyl)-1,2,4-oxadiazol-3-yl]benzamide], the inhibition at 20 ppm in experiment [3] is ≥ 80%. In addition, the pest or weed control at 100 ppm with Uromyces viciae-fabae is ≥ 80%. In the experiment with Phakopsora pachyrhizi, the pest or weed control at 200 ppm is ≥ 80%.
`CCOc1ccc(CN(C(=O)c2ccc(-c3noc(C(F)(F)F)n3)cc2F)C(C)C)cc1OCC` [Compound 4b.11, N-[(3,4-diethoxyphenyl)methyl]-2-fluoro-N-isopropyl-4-[5-(trifluoromethyl)-1,2,4-oxadiazol-3-yl]benzamide]: the inhibition at 20 ppm in experiment [3] was ≥ 80%. Further, the pest or weed control at 100 ppm in the experiment with Uromyces viciae-fabae was ≥ 80%. The pest or weed control at 200 ppm in experiment [2] was ≥ 80%.
For the compound `O=C(NCCc1cccs1)c1ccc(-c2noc(C(F)(F)F)n2)cc1` [Compound 5a.7, N-[2-(2-thienyl)ethyl]-4-[5-(trifluoromethyl)-1,2,4-oxadiazol-3-yl]benzamide], the inhibition at 20 ppm in experiment [3] is ≥ 80%. Moreover, the pest or weed control at 100 ppm in the experiment on Uromyces viciae-fabae is ≥ 80%. For the same compound, the pest or weed control at 200 ppm (in experiment [2]; in the experiment with Phakopsora pachyrhizi) was ≥ 80% each time.
For the compound `O=C(Nc1cn[nH]c1)c1ccc(-c2noc(C(F)(F)F)n2)cc1F` [Compound 5b.7, 2-fluoro-N-(1H-pyrazol-4-yl)-4-[5-(trifluoromethyl)-1,2,4-oxadiazol-3-yl]benzamide], the inhibition at 20 ppm in experiment [3] was ≥ 80%. The pest or weed control at 100 ppm in the experiment with Uromyces viciae-fabae was ≥ 80%. Further, the pest or weed control at 200 ppm (in experiment [2]; in the experiment with Phakopsora pachyrhizi) was ≥ 80% in each case.
Take `O=C(Nc1nc(Br)n[nH]1)c1ccc(-c2noc(C(F)(F)F)n2)cc1F` [Compound 5b.10, N-(3-bromo-1H-1,2,4-triazol-5-yl)-2-fluoro-4-[5-(trifluoromethyl)-1,2,4-oxadiazol-3-yl]benzamide]: the inhibition at 20 ppm in experiment [3] was ≥ 80%. Besides, in the experiment on Uromyces viciae-fabae, the pest or weed control at 100 ppm was ≥ 80%. The pest or weed control at 200 ppm in experiment [2] was ≥ 80%.
With `O=C(NCCc1cccs1)c1ccc(-c2noc(C(F)(F)F)n2)cc1Cl` [Compound 5b.18, 2-chloro-N-[2-(2-thienyl)ethyl]-4-[5-(trifluoromethyl)-1,2,4-oxadiazol-3-yl]benzamide], in experiment [3], the inhibition at 20 ppm was ≥ 80%. Further, in the experiment on Uromyces viciae-fabae, the pest or weed control at 100 ppm was ≥ 80%. Moreover, the pest or weed control at 200 ppm in experiment [2] is ≥ 80%.
